104 molecules from PubChem BioAssay AID1996 can be followed below.

≈ marks a conversion by molar mass, not a printed value.

For the series the following is noted: buffer; pH 7.4; 200.0 µM.
The kinetic solubility is solubility judged after dilution from a stock solution rather than from solid. In turn, `Cc1ccc(N(Cc2cc(=O)[nH]c3ccccc23)C(=O)CCl)c(C)c1` displayed a kinetic solubility of 14.1 µg/mL (≈ 39.7 µM). Take `Oc1c(C(c2ccccn2)N2CCOCC2)ccc2cccnc12` (centres undefined): the solubility (kinetic) amounted to 1.7 µg/mL (≈ 5.29 µM). In the case of `O=C(COC(=O)c1ccc(Br)o1)Nc1cccc(S(=O)(=O)N2CCOCC2)c1`, the solubility (kinetic) turned out to be 59.2 µg/mL (≈ 125 µM).

For `N#C/C(=C\c1c(F)cccc1Cl)S(=O)(=O)c1ccccn1`, the solubility (kinetic) came out at 36.2 µg/mL (≈ 112 µM). The result for `O=C(NC1CCCCC1)Oc1cc2oc(=O)sc2cc1Br` reads 10.2 µg/mL (≈ 27.4 µM); that for `CCOc1ncccc1C(=O)OCC(=O)Nc1ccc2c(c1)CCC2`, 8.1 µg/mL (≈ 23.8 µM). Molecule `O=[N+]([O-])c1ccc(-c2cnc[nH]2)cc1` came in with a solubility (kinetic) above 28.4 µg/mL. In turn, `COc1ccccc1C1CCN(Cc2ccccc2)CC1` yielded a kinetic solubility of 31.1 µg/mL (≈ 111 µM).

For `O=[N+]([O-])c1cc([N+](=O)[O-])c2cc(-c3cccnc3)[nH]c2c1`, the kinetic solubility is below 0.2 µg/mL. `O=C(Nc1ccc2c(c1)CCC2)c1ccc(Br)s1` yielded a kinetic solubility below 0.7 µg/mL.

`Cc1cnc(NC(=O)c2ccccn2)s1` registered a kinetic solubility of 29.3 µg/mL (≈ 134 µM). In the case of `CCC(C(=O)Nc1ccon1)c1ccccc1` (centres undefined) it was above 34.5 µg/mL; in that of `O=C(NCC1CCCO1)c1cc(-c2ccccc2F)no1` (centres undefined), 42.4 µg/mL (≈ 146 µM). `Cc1ccc(-c2noc(=O)n2CC(=O)c2ccc(Cl)cc2)cc1` came in with a solubility (kinetic) below 0.4 µg/mL. Molecule `O=C(CNC(=O)c1ccc(Br)cc1)NC1CC1` yielded a solubility (kinetic) above 44.6 µg/mL. On to `O=C(NCc1ccncc1)C1=NN(c2ccccc2)C(=O)CC1`, for which the kinetic solubility is above 46.3 µg/mL. The molecule `CCCN(CC1CC1)C(=O)CSc1ncnc2sccc12` returned a solubility (kinetic) above 48.2 µg/mL. Regarding `CC(OC(=O)c1ccccc1CCc1ccccc1)C(N)=O` (centres undefined), the solubility (kinetic) is above 44.6 µg/mL. For `O=C(Cn1cc(/C=C\[N+](=O)[O-])c2ccccc21)Nc1ccccc1`, the solubility (kinetic) was 2.2 µg/mL (≈ 6.85 µM). `COc1ccc(NC(=O)CCN2C(=O)[C@@H]3[C@H](C2=O)[C@H]2C=C[C@@H]3C2)cc1` displayed a kinetic solubility of 46.7 µg/mL (≈ 137 µM). The molecule `Fc1ccc(CNc2ccc(N3CCN(Cc4ccccc4)CC3)cc2)cc1` returned a solubility (kinetic) of 14.6 µg/mL (≈ 38.9 µM).

The molecule `CN(Cc1ccccc1Cl)C(=O)c1cc2ccccc2o1` yielded a kinetic solubility of 13.7 µg/mL (≈ 45.7 µM).

Molecule `CC1(c2cccc(Br)c2)NC(=O)N(CC(=O)Nc2ccc3c(c2)OCCO3)C1=O` (centres undefined) yielded a solubility (kinetic) of 67.3 µg/mL (≈ 146 µM). In turn, `O=C(O)c1ccccc1-c1cc2ccccc2[nH]1` registered a solubility (kinetic) of 29.9 µg/mL (≈ 126 µM).

For `CC(=O)NC1(C(F)(F)F)NC(=O)N(CCc2ccccc2)C1=O` (centres undefined), the kinetic solubility was above 49.4 µg/mL. The result for `O=C(NCCCNC(=O)c1cnccn1)c1cccc(F)c1` reads 40.2 µg/mL (≈ 133 µM); that for `O=C(CCc1ccccc1)Nc1cc2c(cc1C(=O)O)OCCCO2`, above 51.2 µg/mL; that for `C=CCOc1c(Cl)cc(CNc2nccs2)cc1OC`, 38.1 µg/mL (≈ 123 µM). `COC(=O)c1sccc1NC(=O)Nc1ccc(C)c(C)c1` yielded a solubility (kinetic) of 20.7 µg/mL (≈ 68 µM). `COc1ccc(OC)c(NC(=O)CCN2CCN(CCO)CC2)c1` registered a kinetic solubility of 45.7 µg/mL (≈ 135 µM). As to `CCOc1ccc(NC(=O)N2CC(C)OC(C)C2)cc1` (centres undefined), the kinetic solubility is above 41.8 µg/mL.

On to `Cc1ccc(C)c(N(CC(=O)N2CCCC2)S(C)(=O)=O)c1`, for which the solubility (kinetic) was determined as 35.8 µg/mL (≈ 115 µM). In the case of `O=C(Nc1ccc(N2CCOCC2)c(F)c1)c1cccs1` it was 17 µg/mL (≈ 55.5 µM). For `Cc1ccc(S(=O)(=O)NCC(=O)Nc2cccnc2)cc1C`, the solubility (kinetic) was above 47.9 µg/mL. `Cc1cc(C)nc(SCc2cn3ccccc3n2)n1`: the kinetic solubility was above 40.6 µg/mL. As for `CNC(=S)NCCCc1ccccc1`, the kinetic solubility was above 31.2 µg/mL. The molecule `O=C(Nc1cc(Cl)cc(Cl)c1)Nc1cnccn1` displayed a solubility (kinetic) of 0.2 µg/mL (≈ 0.706 µM). In the case of `Cc1cc(NC(=O)Cc2ccccc2[N+](=O)[O-])no1`, the solubility (kinetic) is 16.6 µg/mL (≈ 63.5 µM). As to `O=C1CCCCCCCN1Cc1ccccc1`, the solubility (kinetic) is above 34.7 µg/mL. The molecule `Cl.O=C1C2CCCC1C(N1CCCCC1)CC2` (centres undefined) showed a kinetic solubility above 38.7 µg/mL. In the case of `CC(C)S(=O)(=O)c1csc(NC(=O)Nc2cc(Cl)ccc2Cl)c1Cl` it was below 0.5 µg/mL; in that of `Cc1ccc(C)c(C(C)NC(=O)c2ccncc2)c1` (centres undefined), 36 µg/mL (≈ 142 µM); in that of `CCOC(=O)N1CCN(CCCc2ccccc2)CC1`, 30.9 µg/mL (≈ 112 µM). Regarding `CCN(CC(=O)NCc1ccc(F)cc1)CC(=O)Nc1ccc(Br)cc1F`, the solubility (kinetic) was 58.9 µg/mL (≈ 134 µM). Molecule `Cc1ccc([N+](=O)[O-])c(OCCCN2C(=O)NC(C)(C)C2=O)c1` returned a kinetic solubility above 48.2 µg/mL. In turn, `Cc1ccc(O)c(NC(=O)c2noc(C(C)C)c2[N+](=O)[O-])c1` displayed a kinetic solubility of 40.5 µg/mL (≈ 133 µM). In the case of `O=C(c1cc2cc(C(F)(F)F)ccc2s1)N1CCOCC1` it was above 47.3 µg/mL; in that of `O=C(CCN1C(=O)c2ccccc2C1=O)NCc1cccc(Cl)c1`, 32.4 µg/mL (≈ 94.5 µM). Turning to `CCCCNC(=S)N1CCn2cccc2C1c1ccccc1` (centres undefined), the solubility (kinetic) amounted to 5.5 µg/mL (≈ 17.5 µM). The result for `Cn1c2ccccc2c2ncn(Cc3ccc(F)cc3)c(=O)c21` reads below 0.2 µg/mL; that for `COc1ccc(C(=O)O)cc1S(=O)(=O)NCc1ccccn1`, above 48.4 µg/mL. On to `Oc1ccc(Br)cc1CNc1cnc2ccccc2c1`, for which the solubility (kinetic) stood at 1 µg/mL (≈ 3.04 µM). The result for `CC(C)N1CC(COc2ccc(Cl)cc2Cl)OC1=O` (centres undefined) reads above 45.6 µg/mL; that for `CCC(C(=O)NCc1cccnc1)c1ccccc1` (centres undefined), above 38.1 µg/mL; that for `O=C(CN1C(=O)NC2(CCCCC2)C1=O)N1CCc2ccccc2C1`, above 51.2 µg/mL. Regarding `COc1ccc(N(CC(=O)NC2CCS(=O)(=O)C2)S(=O)(=O)c2cc(C)ccc2C)cc1` (centres undefined), the kinetic solubility was found to be 66.3 µg/mL (≈ 142 µM). `S=C(NCc1cccnc1)Nc1ccc2c(c1)OCO2` showed a kinetic solubility above 43.1 µg/mL. For the molecule `CCCCC1(c2ccc(F)cc2)NC(=O)N(CC(=O)Nc2ccc(N3CCOCC3)cc2)C1=O` (centres undefined), the solubility (kinetic) was determined as 55.7 µg/mL (≈ 119 µM). Regarding `CC(C)(C)C(=O)CN1C(=O)NC2(CCCc3ccccc32)C1=O` (centres undefined), the solubility (kinetic) is above 47.2 µg/mL.

`CC(C)CNS(=O)(=O)c1cc2c3c(c1)CC(=O)N3CCC2` showed a solubility (kinetic) of 45.8 µg/mL (≈ 149 µM). `CCCc1c(C)nc(N2CCN(c3ccccc3OC)CC2)[nH]c1=O`: the solubility (kinetic) is 2.5 µg/mL (≈ 7.3 µM).

In turn, `Cc1ccc2nc(-c3ccsc3)c(NC3CCCC3)n2c1` yielded a kinetic solubility of 1.6 µg/mL (≈ 5.38 µM). The result for `CC(=O)c1c(OC(=O)c2ccccc2)ccnc1C(F)(F)F` reads above 46.4 µg/mL; that for `CCNC(=O)c1ccccc1SCC(=O)Nc1ccc(F)cc1`, above 49.9 µg/mL; that for `O=[N+]([O-])c1ccc2c(c1)Nc1nc3ccccc3nc1N2`, 1.4 µg/mL (≈ 5.01 µM). Consider `O=C1COc2ccc(S(=O)(=O)NCc3ccccc3)cc2N1`, for which the solubility (kinetic) worked out at 11.6 µg/mL (≈ 36.4 µM). The molecule `O=C1C(=O)N(Cc2cccs2)c2ccccc21` had a kinetic solubility above 36.5 µg/mL. Molecule `CN(C(=O)Cn1cnc2sccc2c1=O)C1CCCCC1` displayed a solubility (kinetic) above 45.8 µg/mL. `O=C(/C=C/c1ccccc1)OCC(=O)c1c[nH]c2ccccc12` registered a solubility (kinetic) of 3.9 µg/mL (≈ 12.8 µM). `Cc1cc(Cl)cc(C)c1OCC(=O)NC1CCCCCC1` displayed a kinetic solubility of 1.9 µg/mL (≈ 6.13 µM). For `CNc1nc(NC#N)nc(SC)n1`, the kinetic solubility was 24.9 µg/mL (≈ 127 µM). As to `Cc1csc(N)n1`, the solubility (kinetic) turned out to be 10.8 µg/mL (≈ 94.6 µM). With `Cc1ccc(NC(=O)NCCCN2CCCC2=O)cc1Cl`, the kinetic solubility was above 46.5 µg/mL.

In turn, `Cc1ccsc1/C=N/NC(=O)CNC(=O)c1ccco1` registered a kinetic solubility above 43.7 µg/mL. In turn, `O=C(Cc1ccccc1)c1c[nH]c(C(=O)NC2CCCC2)c1` showed a solubility (kinetic) of 2.6 µg/mL (≈ 8.77 µM).

The molecule `CCOC(=O)c1cc(C#N)c(SCC(=O)O)[nH]c1=O` returned a kinetic solubility of 38.8 µg/mL (≈ 137 µM). With `CC(C)CCNCC(O)CON=C1c2ccccc2-c2ccccc21` (centres undefined), the kinetic solubility was 47.4 µg/mL (≈ 140 µM). With `CCOC(=O)c1c(NC(=O)c2ccncc2)sc(C)c1C`, the kinetic solubility is 5 µg/mL (≈ 16.4 µM). In turn, `O=C(COC(=O)CCC(=O)c1cccs1)Nc1ccc(F)c(F)c1F` returned a solubility (kinetic) of 8.1 µg/mL (≈ 21.8 µM). The molecule `S=C(NC1CC1)SCc1ccco1` yielded a kinetic solubility of 10.3 µg/mL (≈ 48.3 µM). `COC(=O)Nc1ccc(S(=O)(=O)NC2CCCCC2)cc1`: the kinetic solubility amounted to 3.2 µg/mL (≈ 10.2 µM). The molecule `O=C(c1cc(-c2ccc(O)cc2)on1)N1CCCC1` had a kinetic solubility above 38.7 µg/mL. Molecule `Cc1cc(C)n2nc(C(=O)OCC(=O)N(CC(C)C)C3CCS(=O)(=O)C3)nc2n1` (centres undefined) came in with a solubility (kinetic) above 63.5 µg/mL. With `COc1ccccc1CCC(=O)OCC(=O)NC1CCCCC1`, the solubility (kinetic) is 43.7 µg/mL (≈ 137 µM). In the case of `O=C(NC1CCCCC1)c1cc(-c2cccc(Cl)c2)on1` it was 0.7 µg/mL (≈ 2.3 µM); in that of `S=c1[nH]c2cc(Br)cnc2[nH]1`, 34.4 µg/mL (≈ 150 µM); in that of `COc1ccccc1-c1nc(=S)c(C(C)=O)c(C)[nH]1`, above 41.2 µg/mL. For `COc1ccc(NC(=O)CNc2cc(S(=O)(=O)N3CCOCC3)ccc2N2CCOCC2)c(OC)c1`, the kinetic solubility was 4.2 µg/mL (≈ 8.07 µM). With `CC(=O)c1sc(NC(=O)c2cccs2)nc1C`, the kinetic solubility worked out at 2 µg/mL (≈ 7.51 µM). The result for `O=C(Nc1cc([N+](=O)[O-])ccc1N1CCCC1)c1ccco1` reads 40.9 µg/mL (≈ 136 µM); that for `COc1ccc(OCCCCn2c(CO)nc3ccccc32)cc1`, 45.4 µg/mL (≈ 139 µM); that for `CCOc1ccc(C(=O)N[C@H](C(=O)Nc2ccc(S(=O)(=O)Nc3nccs3)cc2)C(C)C)cc1`, 62.3 µg/mL (≈ 124 µM).

The molecule `CSc1ccccc1NC(=O)COC(=O)/C=C/c1ccco1` registered a solubility (kinetic) of 16.9 µg/mL (≈ 53.3 µM). Molecule `COc1ccc(CNc2nc3ccc(C)cc3s2)c(OC)c1OC` came in with a kinetic solubility of 15.1 µg/mL (≈ 43.8 µM). The molecule `O=C(CCN=C1NS(=O)(=O)c2ccccc21)NCc1ccccc1F` had a kinetic solubility above 54.2 µg/mL. Turning to `CSCCC(NC(=O)c1ccco1)C(=O)Nc1ccncc1` (centres undefined), the solubility (kinetic) is above 47.9 µg/mL. For the molecule `COC1CCCCC1NCCc1ccccc1.O=C(O)C(=O)O` (centres undefined), the solubility (kinetic) was above 48.5 µg/mL. `CCc1nc2ccc(C(=O)N(C)CC(=O)Nc3ccccc3C(F)(F)F)cc2nc1CC` displayed a solubility (kinetic) of 27.6 µg/mL (≈ 62.1 µM).

The molecule `COC(=O)c1ccc(NC(=O)CN2C(=O)NC3(CCC(C)CC3)C2=O)cc1` (centres undefined) gave a kinetic solubility of 10.1 µg/mL (≈ 27 µM). As for `O=C(NCc1ccc2c(c1)OCO2)c1ccc(Cl)nc1`, the kinetic solubility was above 43.6 µg/mL.

The molecule `COc1ccccc1Oc1ccnc2cc(Cl)ccc12` yielded a solubility (kinetic) of 9.1 µg/mL (≈ 31.8 µM).

As for `CN1CCN(c2ccc(C(F)(F)F)cc2N)CC1`, the kinetic solubility is above 38.9 µg/mL. In the case of `Cc1ccc(N2C(=O)c3cccc([N+](=O)[O-])c3C2=O)cc1C` it was 23.3 µg/mL (≈ 78.6 µM). Turning to `Cc1ccc(OCC2Cn3c(nc4c3c(=O)[nH]c(=O)n4C)O2)cc1C` (centres undefined), the kinetic solubility came out at 3.4 µg/mL (≈ 9.93 µM).
